# Publication PMC8002391, “A High-Throughput Screening System Based on Fluorescence-Activated Cell Sorting for the Directed Evolution of Chitinase A” (International Journal of Molecular Sciences, 2021)
# Biological target: T1, ChiA (chitinase A) (Bacillus licheniformis, UniProt B7UB89)
# T1 construct: synthetic chiA gene in pET22b(+), in frame with pelB signal for periplasmic expression in E. coli BL21 (DE3); whole cells assayed
# Test: fluorescence microtiter plate assay with whole E. coli cells expressing chiA (4MU release)
# Type: cell-based
# Details: 0.1 M sodium acetate pH 6.0; 25 µL cells + 25 µL 0.5 mg/mL 4MUTC; empty-vector cells as control
# T1 sequence (B7UB89 1-580): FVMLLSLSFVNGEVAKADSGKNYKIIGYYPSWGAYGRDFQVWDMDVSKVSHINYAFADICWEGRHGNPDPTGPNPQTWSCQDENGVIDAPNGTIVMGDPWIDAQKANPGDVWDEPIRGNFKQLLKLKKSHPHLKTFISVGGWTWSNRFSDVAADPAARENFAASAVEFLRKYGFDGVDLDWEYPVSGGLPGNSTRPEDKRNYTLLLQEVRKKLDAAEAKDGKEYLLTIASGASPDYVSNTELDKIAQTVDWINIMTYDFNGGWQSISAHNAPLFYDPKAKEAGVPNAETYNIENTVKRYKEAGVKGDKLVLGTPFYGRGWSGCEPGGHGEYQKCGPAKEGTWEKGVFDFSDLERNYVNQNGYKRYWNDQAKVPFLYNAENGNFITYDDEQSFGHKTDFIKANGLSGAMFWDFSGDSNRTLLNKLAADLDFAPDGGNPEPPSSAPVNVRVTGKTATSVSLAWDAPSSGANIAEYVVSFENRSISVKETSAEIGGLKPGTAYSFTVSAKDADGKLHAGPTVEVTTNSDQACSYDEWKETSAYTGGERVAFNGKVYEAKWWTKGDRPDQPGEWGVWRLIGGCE
smiles,measurement,value
"CC(=O)N[C@H]1[C@H](Oc2ccc3c(C)cc(=O)oc3c2)O[C@H](CO)[C@@H](O[C@@H]2O[C@H](CO)[C@@H](O[C@@H]3O[C@H](CO)[C@@H](O)[C@H](O)[C@H]3NC(C)=O)[C@H](O)[C@H]2NC(C)=O)[C@@H]1O [4-methylumbelliferyl β-D-N,N′,N″-triacetyl chitotrioside]",fluorescence microtiter plate assay with whole E. coli cells expressing chiA (4M),comparing E. coli cells expressing chiA to those transformed with the empty vector
